Data on 5 molecules can be found in article PMC4317238 (Pharmacology Research & Perspectives, 2015).

One test concerns their receptors. The following applies: ref Rizzi et al. 2014; Ruzza et al. 2014; cited from earlier work.
For test [1] the following is noted: cited from earlier work.
Test [2] has as its target T1, mouse NPS receptor (NPSR) (Mus musculus, UniProt Q8BZP8).
T1 sequence (Q8BZP8 1-371): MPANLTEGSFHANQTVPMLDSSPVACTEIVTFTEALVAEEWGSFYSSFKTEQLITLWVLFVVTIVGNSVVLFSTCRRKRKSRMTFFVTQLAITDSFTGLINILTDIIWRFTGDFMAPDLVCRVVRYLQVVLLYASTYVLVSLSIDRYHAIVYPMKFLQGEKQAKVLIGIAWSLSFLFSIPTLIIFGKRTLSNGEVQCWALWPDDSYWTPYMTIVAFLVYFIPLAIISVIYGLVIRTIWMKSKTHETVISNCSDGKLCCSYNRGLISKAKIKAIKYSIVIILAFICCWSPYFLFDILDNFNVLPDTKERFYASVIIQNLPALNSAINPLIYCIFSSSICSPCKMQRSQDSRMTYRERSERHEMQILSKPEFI
Put plainly: Calcium mobilization assay, agonist. It is filed as cell-based. The note with it: HEK293mNPSR; mean ± SEM. (A change in cytosolic calcium serves as a functional read-out for many receptors and channels.)

The test system of another test is NPSR(−/−) mice. Put plainly: Recovery of righting reflex. Type of test: in vivo, mouse (congenic to CD-1). The note with it: diazepam 15 mg/kg i.p.

Ends that are not written are not given here.

Regarding substance P [SP], in the test on their receptors, the “potency relative to PWT derivative, calcium mobilization” value was “more potent than their PWT derivatives”. In addition, in test [1] (ref Ruzza et al. 2014), the “duration of action, SP and PWT2-SP” value is recorded as around 5 min.
For the molecule “SFRNGVGTGMKKTSFQRAKS [NPS, neuropeptide S]”, the “Emax (increase in intracellular calcium)” value in test [2] amounted to 417 ± 34 % over the basal levels.
In the case of `CN1C(=O)CN=C(c2ccccc2)c2cc(Cl)ccc21` [diazepam], the “sensitivity to diazepam, NPSR wild type vs. knockout” value in the test with NPSR(−/−) mice is “no differences were measured”.
neurokinin A [NK-A]: in the test on their receptors, the “potency relative to PWT derivative, calcium mobilization” value is “more potent than their PWT derivatives”.
Regarding nociceptin/orphanin FQ [N/OFQ], the “potency relative to PWT derivative, calcium mobilization” value in the test on their receptors is given as “more potent than their PWT derivatives”. Also, in test [1] (ref Rizzi et al. 2014), the “duration of action, N/OFQ” value is recorded as around 20 min.
